In patent US12459912B2 (priority 2020, dated 2025):
“Also recorded” adds a separate entry of the source.

Assays:
[1] = molecular target: T1, human 5-HT transporter (hSERT) (Homo sapiens, UniProt P31645); assay: Human serotonin transporter antagonist radioligand assay ([^3H]imipramine, CHO cells); type: binding
T1 construct: expressed in transfected cells; host or cells: CHO cells
Method: We therefore separately measured interactions with these transporters using two additional types of assays: an antagonist radioligand assay of inhibition of the human 5-HT transporter (hSERT) expressed in CHO cells (Tatsumi, M. et al. (1999), Eur. J. Pharmacol., 368: 277-283) and an assay measuring release of [^3H] […] While the former is sensitive to classic reuptake inhibition, the latter can detect the effects of substrates, which also induce release.
Benzothiophene derivatives were evaluated for inhibiting the human 5-HT transporter (hSERT) as expressed in CHO cells using an antagonist radioligand assay (Tatsumi, M. et al. (1999), Eur. J. Pharmacol., 368: 277-283). […] Test compounds were assayed in three trials at […], and 0.94868 μM.
When compounds are substrates for monoamine transporters instead of solely inhibitors, it is known that IC50 values underestimate their potency for interacting with these transporters (Ilic, M. et al. (2020), Frontiers in Pharmacology 11: 673).

human SERT = molecular target: T2, human SERT (Homo sapiens, UniProt P31645); assay: hSERT [^3H]serotonin release assay (CHO cells); type: cell-based; conditions: for [^3H]-labeled serotonin release (figure legend): percent of max release compared to a control, as function of concentration
T2 construct: expressed in transfected cells

[2] = molecular target: 5-Hydroxytryptamine (Serotonin) Receptor 1B (5-HT1B) (Homo sapiens, UniProt P28222); assay: 5-HT1B/cAMP; type: cell-based; conditions: EC50 at 5-HT1B, agonist
Swiss CD 1 mice = assay: Marble burying test; type: in vivo; conditions: racemic compounds, intraperitoneally 30 minutes before a 30-min session
human DAT = molecular target: T3, human DAT (Homo sapiens, UniProt Q01959); assay: hDAT [^3H]dopamine release assay (CHO cells); type: cell-based; conditions: for DAT/SERT ratio: (DAT EC50)^−1/(SERT EC50)^−1, larger numbers indicate higher DAT selectivity; for [^3H]-labeled dopamine release (figure legend): percent of max release compared to a control, as function of concentration
T3 construct: expressed in transfected cells

MAO-A = MAO-A (Rattus norvegicus, UniProt P21396); conditions: read-out: IC50 MAO-A; Vallejos et al. 2005; cited from earlier work
[3] = Poos 1967; cited from earlier work
neuritogenesis = conditions: Ly et al. 2018, cited from earlier work
5-HT1B = 5-HT1B (Homo sapiens, UniProt P28222); conditions: Ray 2010; cited from earlier work
[4] = molecular target: T4, nAChR(a4/b2) (Nicotinic acetylcholine Receptor α4 β2) (Homo sapiens, UniProt P17787+P43681); assay: cell-based; conditions: reference compound, Blocker mode; read-out: RC50 (μM), Result Type IC50
T4 construct: expressed in transfected cells

[5] = molecular target: T5, GABAA (Gamma-aminobutyric acid Receptor A); type: cell-based; conditions: reference compound, Blocker mode; read-out: RC50 (μM), Result Type IC50
T5 construct: other: opener

5-Hydroxytryptamine (Serotonin) Receptor 1B (5-HT1B), sequence (P28222 whole entry): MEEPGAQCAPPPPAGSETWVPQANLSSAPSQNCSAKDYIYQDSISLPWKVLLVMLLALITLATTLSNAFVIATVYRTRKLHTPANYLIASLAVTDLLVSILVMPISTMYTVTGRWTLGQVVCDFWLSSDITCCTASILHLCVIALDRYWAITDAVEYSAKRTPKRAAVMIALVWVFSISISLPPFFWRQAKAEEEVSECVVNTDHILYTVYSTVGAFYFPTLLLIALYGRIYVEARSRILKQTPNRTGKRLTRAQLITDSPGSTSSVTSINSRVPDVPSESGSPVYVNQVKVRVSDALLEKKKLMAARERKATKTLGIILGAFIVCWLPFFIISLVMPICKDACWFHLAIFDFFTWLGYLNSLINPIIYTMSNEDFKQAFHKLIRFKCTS
T3 sequence (Q01959 whole entry): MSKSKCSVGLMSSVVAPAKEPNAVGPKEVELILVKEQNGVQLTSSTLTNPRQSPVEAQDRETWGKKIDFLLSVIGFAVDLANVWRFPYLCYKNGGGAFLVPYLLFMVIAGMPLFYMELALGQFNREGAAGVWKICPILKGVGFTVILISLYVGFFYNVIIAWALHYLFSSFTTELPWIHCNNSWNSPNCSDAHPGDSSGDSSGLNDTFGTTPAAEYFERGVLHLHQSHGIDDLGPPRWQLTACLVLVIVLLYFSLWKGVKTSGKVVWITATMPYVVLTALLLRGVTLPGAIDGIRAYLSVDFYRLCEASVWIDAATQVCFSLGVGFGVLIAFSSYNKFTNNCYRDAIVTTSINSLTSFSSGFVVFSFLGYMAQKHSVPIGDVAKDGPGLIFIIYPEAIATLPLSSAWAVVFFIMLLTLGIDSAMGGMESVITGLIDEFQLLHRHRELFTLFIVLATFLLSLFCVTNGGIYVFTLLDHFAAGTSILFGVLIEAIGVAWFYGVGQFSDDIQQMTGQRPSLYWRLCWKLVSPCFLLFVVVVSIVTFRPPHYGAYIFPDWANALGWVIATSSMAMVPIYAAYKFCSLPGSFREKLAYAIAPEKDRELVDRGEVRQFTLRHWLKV
T1 sequence (P31645 whole entry): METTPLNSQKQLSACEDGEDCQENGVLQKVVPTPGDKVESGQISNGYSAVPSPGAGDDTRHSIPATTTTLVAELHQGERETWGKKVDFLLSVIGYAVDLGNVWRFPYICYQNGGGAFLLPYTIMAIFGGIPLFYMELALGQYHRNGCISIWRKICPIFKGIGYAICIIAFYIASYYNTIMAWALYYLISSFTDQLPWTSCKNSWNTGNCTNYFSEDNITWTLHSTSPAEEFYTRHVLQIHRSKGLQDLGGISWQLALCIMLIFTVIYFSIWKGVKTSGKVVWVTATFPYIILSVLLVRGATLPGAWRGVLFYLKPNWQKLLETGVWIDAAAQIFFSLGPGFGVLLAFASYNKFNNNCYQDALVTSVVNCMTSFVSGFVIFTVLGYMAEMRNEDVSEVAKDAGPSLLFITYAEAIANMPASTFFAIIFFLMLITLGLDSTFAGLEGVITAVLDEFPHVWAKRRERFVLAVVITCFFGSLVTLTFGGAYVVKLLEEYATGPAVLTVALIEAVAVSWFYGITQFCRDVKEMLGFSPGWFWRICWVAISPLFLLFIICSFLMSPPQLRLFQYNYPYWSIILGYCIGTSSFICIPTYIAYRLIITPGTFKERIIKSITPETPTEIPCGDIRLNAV
T2 sequence (P31645 whole entry): as above
5-HT1B, sequence (P28222 whole entry, species assumed): as the sequence (P28222 whole entry) above
MAO-A, sequence (P21396 whole entry): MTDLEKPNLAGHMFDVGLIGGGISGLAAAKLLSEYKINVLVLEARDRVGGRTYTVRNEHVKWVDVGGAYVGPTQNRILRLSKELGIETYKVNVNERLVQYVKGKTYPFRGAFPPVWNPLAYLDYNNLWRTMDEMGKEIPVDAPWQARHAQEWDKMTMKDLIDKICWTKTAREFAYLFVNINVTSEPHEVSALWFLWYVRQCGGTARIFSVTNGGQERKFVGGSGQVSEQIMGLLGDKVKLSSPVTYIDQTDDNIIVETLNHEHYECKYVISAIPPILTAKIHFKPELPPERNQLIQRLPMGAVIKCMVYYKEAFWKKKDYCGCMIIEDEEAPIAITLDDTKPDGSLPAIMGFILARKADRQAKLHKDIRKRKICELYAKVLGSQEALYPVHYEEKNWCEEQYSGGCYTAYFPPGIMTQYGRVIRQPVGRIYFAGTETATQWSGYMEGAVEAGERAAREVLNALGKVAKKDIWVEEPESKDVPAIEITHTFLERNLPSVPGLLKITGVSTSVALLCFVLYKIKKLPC
T4 sequence (P43681 29-627 limits assumed): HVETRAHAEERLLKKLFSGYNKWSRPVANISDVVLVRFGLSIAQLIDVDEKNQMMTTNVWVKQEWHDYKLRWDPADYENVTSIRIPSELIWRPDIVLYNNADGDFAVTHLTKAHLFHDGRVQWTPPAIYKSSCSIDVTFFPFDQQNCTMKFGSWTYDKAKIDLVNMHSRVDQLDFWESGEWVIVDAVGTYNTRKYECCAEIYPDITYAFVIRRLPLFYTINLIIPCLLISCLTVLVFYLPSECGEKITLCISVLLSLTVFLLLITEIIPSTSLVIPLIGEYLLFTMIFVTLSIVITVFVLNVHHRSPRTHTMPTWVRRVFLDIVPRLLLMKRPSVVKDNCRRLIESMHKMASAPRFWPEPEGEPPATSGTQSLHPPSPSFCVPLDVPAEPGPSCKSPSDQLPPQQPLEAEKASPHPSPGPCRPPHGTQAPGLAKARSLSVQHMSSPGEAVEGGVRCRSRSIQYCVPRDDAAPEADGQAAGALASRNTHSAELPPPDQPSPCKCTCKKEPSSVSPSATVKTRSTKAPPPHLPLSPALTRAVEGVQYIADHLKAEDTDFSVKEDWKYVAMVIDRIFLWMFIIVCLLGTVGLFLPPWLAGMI
T4 sequence (P17787 26-502): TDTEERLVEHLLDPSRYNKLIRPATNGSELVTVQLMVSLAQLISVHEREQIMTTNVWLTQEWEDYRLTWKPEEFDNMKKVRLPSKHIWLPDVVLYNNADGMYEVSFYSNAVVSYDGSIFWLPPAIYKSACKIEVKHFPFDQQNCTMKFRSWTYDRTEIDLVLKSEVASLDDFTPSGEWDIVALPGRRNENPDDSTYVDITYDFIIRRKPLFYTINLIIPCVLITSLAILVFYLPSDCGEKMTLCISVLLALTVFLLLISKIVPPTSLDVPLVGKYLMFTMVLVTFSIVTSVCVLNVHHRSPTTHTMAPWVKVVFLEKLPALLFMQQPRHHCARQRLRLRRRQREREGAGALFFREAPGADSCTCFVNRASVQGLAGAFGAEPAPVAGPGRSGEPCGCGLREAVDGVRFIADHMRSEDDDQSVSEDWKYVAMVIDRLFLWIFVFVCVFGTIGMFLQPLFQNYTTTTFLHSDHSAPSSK

Compound	IC50 [1]	Ki [1]	EC50 (human SERT)	[^3H]-labeled serotonin release (figure legend) (human SERT)	anxiolytic effect (marbles left unburied versus placebo) (Swiss CD 1 mice)	EC50 (human DAT)	DAT/SERT ratio (human DAT)	[^3H]-labeled dopamine release (figure legend) (human DAT)	other results
CNC(C)Cc1ccc2sccc2c1 (stereo not shown)	250 nM	120 nM							
CNC(C)C(=O)c1ccc2sccc2c1 (stereo not shown)	2000 nM	900 nM							
CCNC(C)Cc1ccc2sccc2c1 (stereo not shown)	100 nM	50 nM							
CNC(C)C(=O)c1ccc2sccc2c1.Cl (stereo not shown) [Bk-5-MAPBT, 1-(benzo[b]thiophen-5-yl)-2-(methylamino) propan-1-one hydrochloride]			101 nM	rapidly induces extracellular dopamine and serotonin release	dose-dependent anxiolytic effects	194 nM	0.52	rapidly induces extracellular dopamine and serotonin release	EC50 [2]: 59 nM
CC(N)Cc1csc2ccccc12 (stereo not shown) [Compound 3-APBT, 1-(1-benzothiophen-3-yl)propan-2-amine]									IC50 (MAO-A): 16200 ± 400 nM; effect on appetite [3]: acted to reduce appetite
CCNC(C)Cc1ccc2sccc2c1.Cl (stereo not shown) [Compound 5-EAPBT, 1-(benzothiophen-5-yl)-N-ethylpropan-2-amine hydrochloride]			53 nM	rapidly induces extracellular dopamine and serotonin release	dose-dependent anxiolytic effects	98 nM	0.54	rapidly induces extracellular dopamine and serotonin release	dopamine release Emax in comparison to the reference releaser amphetamine (human DAT; high concentrations, 100 μM amphetamine as reference, hydrochloride): partial DAT substrate; also recorded: Emax below that of the reference releaser
CNC(C)Cc1ccc2sccc2c1.Cl (stereo not shown) [Compound 5-MAPBT, 1-(benzothiophen-5-yl)-N-methylpropan-2-amine hydrochloride]			23 nM	rapidly induces extracellular dopamine and serotonin release	dose-dependent anxiolytic effects	129 nM	0.18	rapidly induces extracellular dopamine and serotonin release	EC50 [2]: 38 nM
CNC(C)Cc1ccc2ccsc2c1.Cl (stereo not shown) [Compound 6-MAPBT, 1-(benzothiophen-6-yl)-N-methylpropan-2-amine hydrochloride]			57 nM	rapidly induces extracellular dopamine and serotonin release	dose-dependent anxiolytic effects	71 nM	0.80	rapidly induces extracellular dopamine and serotonin release	EC50 [2]: 24 nM
CNC(C)Cc1ccc2c(c1)OCO2 (stereo not shown) [MDMA]									Emax for promoting neuritogenesis relative to ketamine (neuritogenesis): approximately twice that of ketamine; EC50 (neuritogenesis; read-out: EC50 for promoting neuritogenesis): 7.41 nM; binding to 5-HT1B (5-HT1B): does not bind directly
CNC(C)Cc1ccc2ccsc2c1 (stereo not shown) [drawing 525]	1500 nM	680 nM							
Dihydro-AY-erythroidine [reference compound]									IC50 [4]: 0.682 µM
Picrotoxin [reference compound]									IC50 [5]: 2.78 µM
